“Also recorded” adds a separate entry of the source.
Legend:
[1] = tested on: HEK293FT cells stably expressing FLAG-vector or FLAG-MAGE-A11; assay: Cell viability alamarBlue assay, HEK293FT cells; type: cell-based; settings: MAGE-A11 expressing HEK293FT cells versus vector control, 24 hours, listed as SJ521054
Description: Cell viability Assay. To assess cell viability after SJ521054 treatment, 1×10^4 cells/ml were treated with SJ521054 (0-40 μM) and incubated for 24 hours prior to changing the media and adding alamarBlue (Thermo Fisher Scientific) and incubating for 4 hours at 37° C. Plates were read by measuring the fluorescence with excitation wavelength at 540 nm and emission wavelength at 590 nm on an Enspire plate reader.

[2] = molecular target: interaction between GST-MAGEA11 MHD and FAM-PCF11_4 peptide (MAGE-A11:PCF11) (Homo sapiens (Human), UniProt P43364); assay: TR-FRET dose response competition assay for disruption of MAGE-A11:PCF11 binding; settings: read-out: IC50 by TR-FRET for disrupting MAGE-A11:PCF11 interaction
Chain of interaction between GST-MAGEA11 MHD and FAM-PCF11_4 peptide (MAGE-A11:PCF11) (P43364 218-429): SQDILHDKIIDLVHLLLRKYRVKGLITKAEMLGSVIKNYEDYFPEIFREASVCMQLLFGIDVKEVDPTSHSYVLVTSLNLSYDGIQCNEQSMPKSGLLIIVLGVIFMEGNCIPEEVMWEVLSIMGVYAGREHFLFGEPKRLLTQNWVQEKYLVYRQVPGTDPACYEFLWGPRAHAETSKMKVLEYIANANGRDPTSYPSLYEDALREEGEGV
How it was run: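 Competition TR-FRET at room temperature in 50 mM Tris pH 7.5, 20 mM MgCl2, 0.1 mg/ml BSA, 1 mM DTT: final 5 nM GST-MAGEA11 MHD, 5 nM Tb-anti-GST, 200 nM FAM-PCF11_4, 90 min. Ratio 520/490 nm converted to % inhibition; IC50 from sigmoidal fit.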

## FC(F)(F)c1ccc2c(NCCCNCc3ccc4[nH]ccc4c3)ccnc2c1 [SJ000521054-02, N^1-((1H-Indol-5-yl)methyl)-N^3-(7-(trifluoromethyl)quinolin-4-yl)propane-1,3-diamine]
[1]
  cell viability: decreased the viability; also recorded: reduces viability of MAGE-A11 expressing HEK293FT cells
[2]
  IC50: 400 nM
